In patent publication US9943509B2, “Methods, compounds, and compositions for the treatment of musculoskeletal diseases” (UNIVERSITY OF SOUTHERN CALIFORNIA, priority 2013, dated 2018):
“Also recorded” adds a separate entry of the source.

Tests used:
Dmd^mdx mice [1] = test: Bone marrow mesenchymal stem cell (MSC) counts by CFU-F assay after treatment; format: in vivo, mouse; details: subcutaneous, Compound 7 0.5, 1.0 and 2.0 mg/kg/day, A(1-7) 0.5 mg/kg, 9 weeks, femur marrow cultured 8 days, vs vehicle
Procedure: FIG. 3: Six different subcutaneously delivered treatment groups (n=6/group) were evaluated—wild-type (WT) C57BL/10SnJ control mice plus five groups of Dmd^mdx (C57BL/10ScSn-Dmd^mdx/J) mice: vehicle (saline/Tween 20), A(1-7) 0.5 mg/kg/day, and Compound 7 at three doses (0.5, 1.0, and 2.0 mg/kg/day). At necropsy, following 9 weeks of treadmill exercise (12-15 m/min 3 times per week) and treatment, bone marrow was collected from both femurs, cultured 8 days, and mesenchymal stem cell (MSC) counts were recorded.
(§1) Methods: 10 weeks old male Dmd^mdx mice were exercised at 12-15 m/min for 30 min 3 times a week for 10 weeks. The absence of dystrophin in Dmd^mdx mice produces a vastly different phenotype than dystrophin deficiency in humans does [De Luca et al., 2003]. […] In this study, 10 weeks of exercise during treatment was used. There were six different treatment groups—Wild Type plus five groups of Dmd^mdx mice: Vehicle, Compound 7 0.5 mg/kg/day, Compound 7 1 mg/kg/day, Compound 7 2.0 mg/kg/day, and 0.5 mg/kg/day Angiotensin (1-7).
Necropsy: At the conclusion of the 9-week observation period (19 weeks of age), all animals were euthanized, and tissue samples and bone marrow (below) were collected. The tissues collected were the diaphragm, gastrocnemius muscle, soleus muscle, tibialis anterior muscle, plantaris muscle and heart. […]

Dmd^mdx mice [2] = test: Inverted grid test of grip strength (hang time) in treadmill-exercised mice; format: in vivo, mouse
Procedure: FIG. 1: Inverted Grid Test: Mouse hang times were recorded on an inverted grid test of grip strength following 8 weeks of treadmill exercise (12-15 m/min 3 times per week) and treatment. Six different subcutaneously delivered treatment groups (n=6/group) were evaluated—wild-type (WT) C57BL/10SnJ control mice plus five groups of Dmd^mdx (C57BL/10ScSn-Dmd^mdx/J) mice: vehicle (saline/Tween 20), A(1-7) 0.5 mg/kg/day, and Compound 7 at three doses (0.5, 1.0, and 2.0 mg/kg/day).
(§2) Effect of administration of a non-peptidic small molecule Mas agonist (“Mas agonist”), Compound 7, once daily by subcutaneous injection for 10 weeks in comparison with Angiotensin (1-7), a peptide shown in the literature to improve outcomes in mdx mice.
(§3) Test Articles: (1) Compound 7 in Tween in saline (0.5, 1 or 2 mg/kg/day); (2) A(1-7) in saline (0.5 mg/kg/day)
Methods: 10 weeks old male Dmd^mdx mice were exercised at 12-15 m/min for 30 min 3 times a week for 10 weeks. The absence of dystrophin in Dmd^mdx mice produces a vastly different phenotype than dystrophin deficiency in humans does [De Luca et al., 2003]. […] In this study, 10 weeks of exercise during treatment was used. There were six different treatment groups—Wild Type plus five groups of Dmd^mdx mice: Vehicle, Compound 7 0.5 mg/kg/day, Compound 7 1 mg/kg/day, Compound 7 2.0 mg/kg/day, and 0.5 mg/kg/day Angiotensin (1-7). […]

Dmd^mdx mice [3] = test: Histological evaluation of H&E stained diaphragm; format: in vivo, mouse; details: subcutaneous, Compound 7 0.5, 1.0, 2.0 mg/kg/day, A(1-7) 0.5 mg/kg/day, 9 weeks, 5 random 40× fields, vs saline
Procedure: FIG. 4: Histological evaluation: Six different subcutaneously delivered treatment groups (n=6/group) were evaluated—wild-type (WT) C57BL/10SnJ control mice plus five groups of Dmd^mdx (C57BL/10ScSn-Dmd^mdx/J) mice: vehicle (saline/Tween 20), A(1-7) 0.5 mg/kg/day, and Compound 7 at three doses (0.5, 1.0, and 2.0 mg/kg/day). At necropsy, following 9 weeks of treadmill exercise (12-15 m/min 3 times per week) and treatment, diaphragms were collected, fixed for 2 days in foramalin, paraffin embedded, sectioned, and H&E stained.
FIG. 5: Histological evaluation: H&E stained diaphragm section, prepared as described in FIG. 4, were analyzed by for degenerating and regenerating fibers as well as inflammation. For each animal (n=6 per treatment group) 5 random 40× fields were taken across the diaphragm section and analyzed. (A) Degenerating fibers were counted as deadened fibers co-localized with an open space. […] Compound 7 across the dosage was similar to Dmd^mdx mice treated with A(1-7). (B) The number of regenerating fibers per field were counted as healthy fibers appearing with basophilic staining. […] (C) Inflammation was quantified as loci of 10 or more inflammatory cells.
as §1
Necropsy: At the conclusion of the 9-week observation period (19 weeks of age), all animals were euthanized, and tissue samples and bone marrow (below) were collected. The tissues collected were the diaphragm, gastrocnemius muscle, soleus muscle, tibialis anterior muscle, plantaris muscle and heart. The gastrocnemius muscle, soleus muscle, tibialis anterior muscle, plantaris muscle from the left leg as well as the diaphragm and heart were fixed in formalin and stored in 70% EtOH for hematoxylin and eosin (H&E) staining.
Histological Evaluation of the Diaphragm: The diaphragm was embedded in paraffin, sectioned and stained by H & E (hematoxylin and eosin). The parameters were assessed include (1) the number of regenerating fibers as defined by basophilic fibers; (2) number of degenerating fibers and the number of inflammatory loci (clusters of 10 or more inflammatory cells). Five random 40× fields per diaphragm were evaluated.

Dmd^mdx mice [4] = test: Weights test of forelegs grip strength (grip score); format: in vivo, mouse
Procedure: FIG. 2: Performance on the weights test and calculation of grip score [Deacon, 2013] allowed a measure of forepaw grip strength was recorded following 9 weeks of treadmill exercise (12-15 m/min 3 times per week) and treatment. Six different subcutaneously delivered treatment groups (n=6/group) were evaluated—wild-type (WT) C57BL/10SnJ control mice plus five groups of Dmd^mdx (C57BL/10ScSn-Dmd^mdx/J) mice: vehicle (saline/Tween 20), A(1-7) 0.5 mg/kg/day, and Compound 7 at three doses (0.5, 1.0, and 2.0 mg/kg/day).
as §2, §3
Methods: 10 weeks old male Dmd^mdx mice were exercised at 12-15 m/min for 30 min 3 times a week for 10 weeks. […]
If the mouse is unsuccessful at lifting a particular weight for 3 seconds in all 3 attempts then the weight lower than the current weight was recorded as the last successful weight lifted by the mouse. The number of seconds (0 or 1 or 2) was recorded for the highest weight the mouse can lift. […]

[5] = system: Dmd^mdx and Sgcd−/− mouse models of muscular dystrophy; details: Dmd^mdx and Sgcd−/− mice; Acuña et al., 2014; Sabharwal et al., 2012; cited from earlier work
[6] = system: cardiac fibrogenesis and remodeling; details: Iwata et al., 2005; Grobe et al., 2007; cited from earlier work
[7] = system: mice chronically infused with AngII; details: AngII/A(1-7) co-treatment vs AngII infusion alone; Cisternas et al., 2015; cited from earlier work

Molecule	bone marrow MSC counts (Dmd^mdx mice [1])	muscle strength by the inverted grid test (Dmd^mdx mice [2]; once daily subcutaneous, treadmill exercise, summary of FIG. 1)	hang time on the inverted grid test (Dmd^mdx mice [2]; subcutaneous 2.0 mg/kg/day, 8 weeks of treadmill exercise and treatment, vs vehicle treated Dmd^mdx, n=6/group, t-test)	inflammation: loci of 10 or more inflammatory cells in diaphragm (Dmd^mdx mice [3])	number of degenerating fibers in diaphragm (Dmd^mdx mice [3])	number of regenerating (basophilic) fibers per field in diaphragm (Dmd^mdx mice [3])	weights test of grip strength, comparison with A(1-7) (Dmd^mdx mice [4]; Compound 7 0.5, 1 or 2 mg/kg/day vs A(1-7) 0.5 mg/kg/day)	muscle strength by the weights test of grip strength (Dmd^mdx mice [4]; once daily subcutaneous, treadmill exercise, summary of FIG. 2)	fibrosis [5]	measures of muscle strength [5]	oxidative stress [5]	cardiac fibrogenesis and remodeling (interstitial myocardial fibrosis, myocyte hypertrophy) [6]	gastrocnemius muscle fiber diameter [7]	performance on the weights test [7]
CCCCOC(=O)NS(=O)(=O)c1ccc(OC(F)(F)F)cc1-c1ccc(Cn2ccnc2)cn1 [Compound 7, butyl ((2-(5-((1H-imidazol-1-yl)methyl)pyridin-2-yl)-4-(trifluoromethoxy)phenyl)sulfonyl)carbamate]	increased bone marrow MSC counts	increased muscle strength	increase in hang time	significantly increased number of regenerating fibers	reduction in the number of degenerative fibers; also recorded: reduce degenerating fibers	significantly increased number of regenerating fibers	superior to A(1-7)	increased muscle strength	–	–	–	–	–	–
Asp-Arg-Val-Tyr-Ile-His-Pro (DRVYIHP; printed: Asp-Arg-Val-Tyr-Ile-His-Pro) [A(1-7), endogenous Mas receptor heptapeptide ligand, purchased from BACHEM]	increased bone marrow MSC counts	–	–	–	reduction in the number of degenerative fibers	–	–	–	reduced fibrosis	improved measures of muscle strength	reduced	block cardiac fibrogenesis and remodeling	prevented a decrease in gastrocnemius muscle fiber diameter	increased
